The values below are quoted from earlier work in patent US20100317631A1, “Gel Composition and Transcrotal Application of a Composition for the Treatment of Hypogonadism” (Dr. August Wolff GmbH & Co. Arzneimittel, priority 2000, published 2010).

The structures appear in SMILES notation.

[1] abbreviates: intra muscular, standard dosage 250 mg.

For the compound `CCCCCCC(=O)O[C@H]1CC[C@H]2[C@@H]3CCC4=CC(=O)CC[C@]4(C)[C@H]3CC[C@]12C` [testosterone enanthat], the terminal half-time value (intra muscular administration) is 4.5 days. For the same compound, under setting [1], the “testosterone concentrations in serum achieved” value is given as “up to 50 nmol/l” and the “time at which serum testosterone passes the lower limit of normal range” value is above 12 days.
